Patent US8202987B2, “Method of obtaining conformational polymorph of sucrose” (National Central University, priority 2007, dated 2012)

Assay type: physicochemical
Experimental: Then an anti-solvent method is used at 60° C. to add methanol into the saturated sucrose solution for obtaining the new sucrose through re-crystallization. The new sucrose obtained has a melting point at 150° C., which is lower then 190° C. for the original sucrose. […] Therefore, the present invention contributes to sugar industry, drug industry and food industry.
Conclusively, a novel conformational polymorph of sucrose is obtained according to the present invention.

Row | Structure (SMILES) | solubility relative to the original sucrose | stability relative to the original sucrose | solubility
1 | OC[C@H]1O[C@@](CO)(O[C@H]2O[C@H](CO)[C@@H](O)[C@H](O)[C@H]2O)[C@@H](O)[C@@H]1O [new sucrose, sucrose] | lower solubility than the original sucrose | higher stability than the original sucrose | –
2 | OC[C@H]1O[C@@](CO)(O[C@H]2O[C@H](CO)[C@@H](O)[C@H](O)[C@H]2O)[C@@H](O)[C@@H]1O [sucrose] | – | – | 2873 milligrams sucrose per milliliter water
